# Reference: ChEMBL document CHEMBL1201862, “PubChem BioAssay data set” (2004)
#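 How tested: cells in 96-well plates exposed to compound for 48 hours at five concentrations. GI50 = concentration required for 50% inhibition of growth.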 Activity calls are given as the source filed them. Rule as the data show it: active = GI50 up to about 1.1 µM and inactive = higher.
# Assays:
# Test in all cases: DTP human tumour cell line panel, 48 h
# OVCAR-3 = test system: OVCAR-3
# SF-539 = test system: SF-539
# A498 = test system: A498
# UACC-257 = test system: UACC-257
# XF498 = test system: XF498
# M19-MEL = test system: M19-MEL
# DMS-114 = test system: DMS-114
# SN12C = test system: SN12C
# MCF7 = test system: MCF7
# DMS-273 = test system: DMS-273
# KM-20L2 = test system: KM-20L2
# HL-60 = test system: HL-60
# DLD-1 = test system: DLD-1
# ACHN = test system: ACHN
# SR = test system: SR
Compound,GI50 (OVCAR-3),GI50 (SF-539),GI50 (A498),GI50 (UACC-257),GI50 (XF498),GI50 (M19-MEL),GI50 (DMS-114),GI50 (SN12C),GI50 (MCF7),GI50 (DMS-273),GI50 (KM-20L2),GI50 (HL-60),GI50 (DLD-1),GI50 (ACHN),GI50 (SR)
Cc1c2cnccc2c(C)c2c1c1ccccc1n2CCCCCCNCc1ccccc1,1.87 µM (inactive),1.87 µM (inactive),2.11 µM (inactive),1.96 µM (inactive),2.29 µM (inactive),2.09 µM (inactive),1.83 µM (inactive),1.59 µM (inactive),1.45 µM (inactive),1.21 µM (inactive),1.49 µM (inactive),1.03 µM (active),0.879 µM (active),,
C=C(C(=O)C(=O)Oc1ccc(Cl)cc1)C(=O)c1ccc(C)cc1,46.8 µM (inactive),18.4 µM (inactive),> 100 µM (inactive),71.8 µM (inactive),> 100 µM (inactive),17.7 µM (inactive),30.9 µM (inactive),49.9 µM (inactive),,39.2 µM (inactive),59.7 µM (inactive),17.9 µM (inactive),28.4 µM (inactive),91.4 µM (inactive),13.1 µM (inactive)
CC(C)OP(=O)(OC(C)C)/C(I)=N/Nc1ccc([N+](=O)[O-])cc1,> 100 µM (inactive),> 100 µM (inactive),> 100 µM (inactive),> 100 µM (inactive),> 100 µM (inactive),> 100 µM (inactive),> 100 µM (inactive),> 100 µM (inactive),,> 100 µM (inactive),> 100 µM (inactive),> 100 µM (inactive),> 100 µM (inactive),> 100 µM (inactive),> 100 µM (inactive)
O=C(O)c1cc2sc(C(=O)O)cc2s1,> 100 µM (inactive),> 100 µM (inactive),> 100 µM (inactive),> 100 µM (inactive),> 100 µM (inactive),> 100 µM (inactive),> 100 µM (inactive),> 100 µM (inactive),,> 100 µM (inactive),> 100 µM (inactive),> 100 µM (inactive),> 100 µM (inactive),,> 100 µM (inactive)
O=c1oc2ccccc2n1P(=O)(n1c(=O)oc2ccccc21)n1c(=O)oc2ccccc21,> 100 µM (inactive),> 100 µM (inactive),> 100 µM (inactive),> 100 µM (inactive),> 100 µM (inactive),60.3 µM (inactive),> 100 µM (inactive),> 100 µM (inactive),,> 100 µM (inactive),> 100 µM (inactive),> 100 µM (inactive),> 100 µM (inactive),> 100 µM (inactive),> 100 µM (inactive)
CC[C@](C)(O)C(=O)O[C@H]1C(=O)O[C@@H]2C[C@H]3C(C)=C[C@H](O)[C@@H](O)[C@]3(C)[C@H]3[C@@]4(O)OC[C@]32[C@@H]1[C@@H](C)[C@H]4O,13.5 µM (inactive),12.5 µM (inactive),30.2 µM (inactive),47.8 µM (inactive),11.9 µM (inactive),11 µM (inactive),3.68 µM (inactive),73.5 µM (inactive),11.6 µM (inactive),17.9 µM (inactive),47.1 µM (inactive),7.85 µM (inactive),6.11 µM (inactive),,
NC1(C(=O)O)CCCC1 [CYCLOLEUCINE],> 62.5 µM (inactive),> 625 µM (inactive),,> 625 µM (inactive),5.77 µM (inactive),> 625 µM (inactive),> 625 µM (inactive),> 91 µM (inactive),> 625 µM (inactive),> 625 µM (inactive),> 625 µM (inactive),> 625 µM (inactive),> 625 µM (inactive),,
